Organism: Rattus norvegicus
Test: Open TG-GATES - Regimen: Single
Format: toxicity, organism-based, Sprague-Dawley
Set-up: regimen Single, gender Male, age 6 weeks
Settings: in vivo, po, 0 mg/kg, route gavage, dose level Control; for APTT / Bas / Eos / Fbg / Hb / Ht / Lym / MCH / MCHC / MCV / Mono / Neu / PT / RBC / Ret / WBC / Plat: tissue Blood; for KIDNEY_L / KIDNEY_R / KIDNEY_TOTAL: tissue Kidney; for LIVER: tissue Liver

C[C@H](CS)C(=O)N1CCC[C@H]1C(=O)O [CAPTOPRIL]
TERMINAL_BW (3 h): 220.9 g | APTT (3 h): 16.4 s | Bas (3 h): 0% | Eos (3 h): 1.2% | Fbg (3 h): 204.8 mg/dL | Hb (3 h): 13.1 g/dL | Ht (3 h): 39.7% | Lym (3 h): 79.2% | MCH (3 h): 21.4 pg | MCHC (3 h): 33.1% | MCV (3 h): 64.5 fL | Mono (3 h): 6% | Neu (3 h): 14% | PT (3 h): 11.7 s | RBC (3 h): 615.2 x10_4/ul | Ret (3 h): 7.5% | WBC (3 h): 110.3 x10_2/uL | KIDNEY_L (3 h): 0.9 g | KIDNEY_R (3 h): 1 g | KIDNEY_TOTAL (3 h): 1.9 g | ALP (3 h, tissue Plasma): 902.4 IU/L | ALT (3 h, tissue Plasma): 34 IU/L | AST (3 h, tissue Plasma): 65.2 IU/L | BUN (3 h, tissue Plasma): 13 mg/dL | CRE (3 h, tissue Plasma): 0.5 mg/dL | DBIL (3 h, tissue Plasma): 0.018 mg/dL | GLC (3 h, tissue Plasma): 193.6 mg/dL | IP (3 h, tissue Plasma): 9.9 mg/dL | K (3 h, tissue Plasma): 5.1 meq/L | LDH (3 h, tissue Plasma): 84.6 IU/L | Na (3 h, tissue Plasma): 137.6 meq/L | PL (3 h, tissue Plasma): 127.6 mg/dL | RALB (3 h, tissue Plasma): 3.7 g/dL | TBIL (3 h, tissue Plasma): 0.4 mg/dL | TC (3 h, tissue Plasma): 70.8 mg/dL | TG (3 h, tissue Plasma): 42.6 mg/dL | TP (3 h, tissue Plasma): 5.4 g/dL | gamma-GTP (3 h, tissue Plasma): 1.6 IU/L | TERMINAL_BW (6 h): 220.4 g | APTT (6 h): 15.7 s | Bas (6 h): 0% | Eos (6 h): 1.2% | Hb (6 h): 13.5 g/dL | Ht (6 h): 41.1% | Lym (6 h): 76.8% | MCH (6 h): 21.1 pg | MCHC (6 h): 32.9% | MCV (6 h): 64.3 fL | Mono (6 h): 6.2% | Neu (6 h): 16.2% | PT (6 h): 11.8 s | Plat (6 h): 118.9 x10_4/uL | RBC (6 h): 639.6 x10_4/ul | Ret (6 h): 7.5% | WBC (6 h): 124.4 x10_2/uL | KIDNEY_L (6 h): 1 g | KIDNEY_R (6 h): 1 g | KIDNEY_TOTAL (6 h): 2 g | ALP (6 h, tissue Plasma): 725.4 IU/L | ALT (6 h, tissue Plasma): 31.2 IU/L | AST (6 h, tissue Plasma): 58.4 IU/L | BUN (6 h, tissue Plasma): 11.8 mg/dL | CRE (6 h, tissue Plasma): 0.6 mg/dL | DBIL (6 h, tissue Plasma): 0.012 mg/dL | GLC (6 h, tissue Plasma): 198.2 mg/dL | K (6 h, tissue Plasma): 4.7 meq/L | LDH (6 h, tissue Plasma): 75.6 IU/L | Na (6 h, tissue Plasma): 139 meq/L | PL (6 h, tissue Plasma): 135.6 mg/dL | RALB (6 h, tissue Plasma): 3.6 g/dL | TBIL (6 h, tissue Plasma): 0.3 mg/dL | TC (6 h, tissue Plasma): 76.8 mg/dL | TG (6 h, tissue Plasma): 60 mg/dL | TP (6 h, tissue Plasma): 5.3 g/dL | gamma-GTP (6 h, tissue Plasma): 1.4 IU/L | TERMINAL_BW (9 h): 222.4 g | APTT (9 h): 16.3 s | Bas (9 h): 0% | Eos (9 h): 1% | Fbg (9 h): 207.2 mg/dL | Hb (9 h): 12.9 g/dL | Ht (9 h): 39.1% | Lym (9 h): 79.8% | MCH (9 h): 21.2 pg | MCHC (9 h): 33% | MCV (9 h): 64.5 fL | Mono (9 h): 5.4% | Neu (9 h): 14% | PT (9 h): 12.2 s | Plat (9 h): 118.8 x10_4/uL | RBC (9 h): 607 x10_4/ul | Ret (9 h): 7.9% | WBC (9 h): 89.1 x10_2/uL | KIDNEY_L (9 h): 1 g | KIDNEY_R (9 h): 1 g | KIDNEY_TOTAL (9 h): 2.1 g | LIVER (9 h): 9.6 g | ALP (9 h, tissue Plasma): 868 IU/L | ALT (9 h, tissue Plasma): 33.4 IU/L | AST (9 h, tissue Plasma): 60.2 IU/L | BUN (9 h, tissue Plasma): 13.4 mg/dL | CRE (9 h, tissue Plasma): 0.4 mg/dL | DBIL (9 h, tissue Plasma): 0.078 mg/dL | GLC (9 h, tissue Plasma): 200 mg/dL | IP (9 h, tissue Plasma): 10 mg/dL | K (9 h, tissue Plasma): 4.9 meq/L | LDH (9 h, tissue Plasma): 53.8 IU/L | Na (9 h, tissue Plasma): 137.8 meq/L | PL (9 h, tissue Plasma): 132.2 mg/dL | RALB (9 h, tissue Plasma): 3.6 g/dL | TBIL (9 h, tissue Plasma): 0.4 mg/dL | TC (9 h, tissue Plasma): 68.8 mg/dL | TG (9 h, tissue Plasma): 64.8 mg/dL | TP (9 h, tissue Plasma): 5.4 g/dL | gamma-GTP (9 h, tissue Plasma): 2 IU/L | TERMINAL_BW (24 h): 235.3 g | APTT (24 h): 15.7 s | Bas (24 h): 0% | Eos (24 h): 1.4% | Hb (24 h): 13.4 g/dL | Ht (24 h): 40.3% | Lym (24 h): 77.6% | MCH (24 h): 21.7 pg | MCHC (24 h): 33.1% | MCV (24 h): 65.6 fL | Mono (24 h): 5.8% | Neu (24 h): 15.4% | PT (24 h): 11.4 s | Plat (24 h): 115.5 x10_4/uL | RBC (24 h): 614.6 x10_4/ul | Ret (24 h): 9.1% | WBC (24 h): 114 x10_2/uL | KIDNEY_L (24 h): 1 g | KIDNEY_R (24 h): 1 g | KIDNEY_TOTAL (24 h): 2 g | LIVER (24 h): 11.7 g | ALP (24 h, tissue Plasma): 943.6 IU/L | ALT (24 h, tissue Plasma): 39 IU/L | AST (24 h, tissue Plasma): 65.2 IU/L | BUN (24 h, tissue Plasma): 18.2 mg/dL | CRE (24 h, tissue Plasma): 0.6 mg/dL | Ca (24 h, tissue Plasma): 11 mg/dL | DBIL (24 h, tissue Plasma): 0.082 mg/dL | GLC (24 h, tissue Plasma): 199.8 mg/dL | IP (24 h, tissue Plasma): 8.5 mg/dL | K (24 h, tissue Plasma): 4.6 meq/L | Na (24 h, tissue Plasma): 140.2 meq/L | PL (24 h, tissue Plasma): 146 mg/dL | RALB (24 h, tissue Plasma): 3.9 g/dL | TBIL (24 h, tissue Plasma): 0.3 mg/dL | TC (24 h, tissue Plasma): 76.8 mg/dL | TG (24 h, tissue Plasma): 95.8 mg/dL | TP (24 h, tissue Plasma): 5.7 g/dL

— ChEMBL document CHEMBL3885861, “Open TG-GATES”
